According to article PMC11671526, “β-caryophyllene sensitizes hepatocellular carcinoma cells to chemotherapeutics and inhibits cell malignancy through targeting MAPK signaling pathway” (Frontiers in Pharmacology, 2024):

Test system: HepG2 cells
Assay: RNA-seq transcriptome analysis of differentially expressed genes
Type: cell-based, human
Conditions: BCP vs control HepG2, RNA-seq
Procedure: The quality and concentration of RNA were examined by MOPS RNA electrophoresis and Eppendorf BioSpectrometer. The transcriptome analysis was performed by BGI-Wuhan China. The RNA-seq dataset of this study is accessible in the Gene Expression Omnibus (GEO) with an access number of GSE276099. The sequence library for each sample was prepared using the BGISEQ-500 platform with a 50-bp single-end (SE50) format. […]2.2.1) was used to align the clean reads to the reference genome and alignment of the clean reads to the reference genes was carried out using Bowtie2 (v2.4.5) ([Langmead and Salzberg, 2012]; [Kim et al., 2015]). Gene expression levels were calculated by RSEM (v1.3.1) ([Li and Dewey, 2011]). Analysis of differential gene expression was performed using edgeR in the Bioconductor software package ([Robinson et al., 2010]). Using a standard protocol, the RNA samples were also examined by reverse transcription and quantitative polymerase chain reaction (RT-qPCR). In brief, for reverse transcription, total RNA (1 μg) and gDNA wiper Mix were incubated at 42°C for 2 min. The samples were immediately incubated with a master mix containing 10 pmol/μL of poly (dT) primers at 37°C for 15 min and 85°C for 5 s. To detect the expression of specific genes by qPCR analysis, gene-specific primers (shown in Supplementary Table S1) were mixed with the ChamQ Universal SYBER qPCR Master Mix and the reaction was conducted using the Roche Lightcycler 480. The GAPDH value was used to normalize the results of each gene. The RNA-seq data of BCP-treated HepG2 cells were screened for DEGs. Gene symbols were turned into Enterz ID using the org.Hs.eg.db Bio-conductor R package. The cluster profiler (v4.6.2) package was used to perform the Kyoto Encyclopedia of Genes and Genomes (KEGG) and Gene Ontology (GO) enrichment analyses ([Wu et al., 2021]). Following the Transcript per million (TPM) data of the dataset, the line chart, and heatmap were plotted using ggplot2 and pheatmap R packages, respectively.

C=C1CC/C=C(\C)CC[C@@H]2[C@@H]1CC2(C)C [BCP, β-caryophyllene]
ABCA4 change: Up
ABCA4 logFC: 1.08
ABHD16B change: Down
ABHD16B logFC: -0.7624
ACCS change: Up
ACCS logFC: 0.7756
ADAT3 change: Down
ADAT3 logFC: -0.6489
ADGRE1 change: Down
ADGRE1 logFC: -1.049
ADORA1 change: Down
ADORA1 logFC: -0.951
ADORA2A change: Down
ADORA2A logFC: -0.7747
ADRA2C change: Down
ADRA2C logFC: -0.8257
AGT change: Up
AGT logFC: 0.6624
AKR1C1 change: Down
AKR1C1 logFC: -0.9841
ALOX12B change: Down
ALOX12B logFC: -0.7891
ALOXE3 change: Down
ALOXE3 logFC: -1.101
ANK1 change: Down
ANK1 logFC: -0.6258
ANK2 change: Up
ANK2 logFC: 0.6135
ANKRD63 change: Down
ANKRD63 logFC: -1.109
ANO9 change: Up
ANO9 logFC: 0.6598
AOX1 change: Down
AOX1 logFC: -0.7887
ARHGAP25 change: Down
ARHGAP25 logFC: -0.9496
ARTN change: Down
ARTN logFC: -0.6893
B3GNT4 change: Down
B3GNT4 logFC: -0.8549
BEST1 change: Up
BEST1 logFC: 0.7297
BOC change: Down
BOC logFC: -1.001
BOLA2B change: Down
BOLA2B logFC: -1.579
BORCS8-MEF2B change: Up
BORCS8-MEF2B logFC: 0.7383
C4orf50 change: Down
C4orf50 logFC: -0.84
C7orf31 change: Up
C7orf31 logFC: 0.8499
C14orf132 change: Down
C14orf132 logFC: -0.9885
C15orf62 change: Down
C15orf62 logFC: -0.8151
CACNA1D change: Up
CACNA1D logFC: 0.899
CACNA1E change: Down
CACNA1E logFC: -0.8241
CAMK2N2 change: Down
CAMK2N2 logFC: -0.8129
CARMIL2 change: Down
CARMIL2 logFC: -0.818
CDC25C change: Up
CDC25C logFC: 0.5857
CENPE change: Up
CENPE logFC: 0.6854
CERS4 change: Down
CERS4 logFC: -0.7861
CHST6 change: Down
CHST6 logFC: -0.6638
CILP2 change: Down
CILP2 logFC: -0.9152
CLEC7A change: Down
CLEC7A logFC: -1.627
CLGN change: Up
CLGN logFC: 0.5838
COL9A2 change: Up
COL9A2 logFC: 0.6974
CPAMD8 change: Up
CPAMD8 logFC: 0.9195
CRYBG1 change: Down
CRYBG1 logFC: -0.6404
CSF1R change: Up
CSF1R logFC: 1.132
CTNNBIP1 change: Up
CTNNBIP1 logFC: 0.608
CYP24A1 change: Up
CYP24A1 logFC: 0.7733
CYP39A1 change: Down
CYP39A1 logFC: -0.966
D2HGDH change: Up
D2HGDH logFC: 0.7244
DEPTOR change: Down
DEPTOR logFC: -0.8053
DOK7 change: Up
DOK7 logFC: 0.6123
DPF1 change: Down
DPF1 logFC: -0.7852
DUSP18 change: Down
DUSP18 logFC: -1.0326
ELOVL6 change: Down
ELOVL6 logFC: -0.6915
EN2 change: Down
EN2 logFC: -0.8276
ENPP1 change: Up
ENPP1 logFC: 0.6168
EPHA7 change: Up
EPHA7 logFC: 0.6078
ERVV-2 change: Up
ERVV-2 logFC: 0.6706
FAAH2 change: Up
FAAH2 logFC: 0.6861
FAM72A change: Up
FAM72A logFC: 0.7318
FAM167B change: Down
FAM167B logFC: -1.112
FAM222A change: Down
FAM222A logFC: -0.6769
FAR2 change: Down
FAR2 logFC: -0.7201
FBXL22 change: Down
FBXL22 logFC: -1.204
FDXACB1 change: Down
FDXACB1 logFC: -1.018
FES change: Down
FES logFC: -1.129
FGF11 change: Down
FGF11 logFC: -0.6148
FGF12 change: Up
FGF12 logFC: 0.873
FHIT change: Up
FHIT logFC: 0.955
FICD change: Up
FICD logFC: 0.637
FUT3 change: Down
FUT3 logFC: -0.9413
GBP4 change: Down
GBP4 logFC: -1.639
GGT2 change: Up
GGT2 logFC: 0.9035
GJD3 change: Down
GJD3 logFC: -0.6605
GPD1 change: Up
GPD1 logFC: 0.9345
GPR3 change: Down
GPR3 logFC: -1.067
GPR158 change: Up
GPR158 logFC: 0.961
GRIP2 change: Down
GRIP2 logFC: -0.6933
H3C6 change: Down
H3C6 logFC: -0.6656
H4C8 change: Down
H4C8 logFC: -0.9939
HBA1 change: Down
HBA1 logFC: -0.7699
HPD change: Up
HPD logFC: 0.6168
HPGD change: Down
HPGD logFC: -0.5852
IFIT1 change: Down
IFIT1 logFC: -0.7944
IFIT2 change: Down
IFIT2 logFC: -0.7214
IL7R change: Down
IL7R logFC: -0.8033
IMMP2L change: Up
IMMP2L logFC: 0.6542
IQCG change: Up
IQCG logFC: 0.9618
ISYNA1 change: Down
ISYNA1 logFC: -1.197
JMJD7-PLA2G4B change: Up
JMJD7-PLA2G4B logFC: 0.8598
KCP change: Up
KCP logFC: 1.479
KHDC1 change: Down
KHDC1 logFC: -0.6694
KRT34 change: Up
KRT34 logFC: 0.7278
LOC100133315 change: Up
LOC100133315 logFC: 0.7126
LOC102724200 change: Up
LOC102724200 logFC: 1.529
LOC102724788 change: Up
LOC102724788 logFC: 0.903
LOC107984638 change: Down
LOC107984638 logFC: -1.075
LRRC56 change: Down
LRRC56 logFC: -0.591
LRRK2 change: Down
LRRK2 logFC: -0.8118
MAST4 change: Down
MAST4 logFC: -0.6435
MCTP2 change: Up
MCTP2 logFC: 0.7514
MORN4 change: Up
MORN4 logFC: 0.6216
MVB12B change: Up
MVB12B logFC: 0.6743
MXRA8 change: Down
MXRA8 logFC: -0.6329
MYB change: Down
MYB logFC: -0.6747
MYH14 change: Up
MYH14 logFC: 0.8331
MYPN change: Up
MYPN logFC: 0.6564
NCF2 change: Down
NCF2 logFC: -1.214
NEBL change: Up
NEBL logFC: 0.5931
NECAB2 change: Up
NECAB2 logFC: 0.9799
NEIL3 change: Up
NEIL3 logFC: 0.6475
NEK11 change: Up
NEK11 logFC: 0.7755
NFE2 change: Down
NFE2 logFC: -0.6303
NPHS1 change: Up
NPHS1 logFC: 1.189
NPIPA3 change: Down
NPIPA3 logFC: -0.8968
NPY4R change: Up
NPY4R logFC: 0.7533
NR5A2 change: Down
NR5A2 logFC: -0.6198
NR6A1 change: Down
NR6A1 logFC: -0.7194
NYAP1 change: Down
NYAP1 logFC: -0.7161
